Assay [1] deals with human cytomegalovirus (HCMV). The assay can be described thus: microbe, parasite or virus in culture. To be noted: for IC50: Human betaherpesvirus 5, HFF, read-out: HCMV; for antiviral activity against HCMV (in words): comment on Table 1 data. In kind it is cell-based, Towne strain. The procedure:
(§1) The routine growth and passage of KB and BSC-1 cells was performed in monolayer cultures using minimal essential medium (MEM) with either Hanks salts [MEM(H)] or Earle salts [MEM(E)] supplemented with 10% calf serum. The sodium bicarbonate concentration was varied to meet the buffering capacity required. Cultures of diploid human foreskin fibroblast (HFF) or MRC-5 cells were grown in medium consisting of MEM(E) with 10% fetal bovine serum. Cells were passaged at 1:2 to 1:10 dilutions according to conventional procedures by using 0.05% trypsin plus 0.02% EDTA in a HEPES buffered salt solution (HBS) [Shipman, C., Jr., Proc. Soc. […] HFF and MRC-5 cells were passaged only at 1:2 dilutions. The Towne strain, plaque-purified isolate Po, of HCMV was kindly provided by Dr. Mark Stinski, University of Iowa. The KOS strain of HSV-1 was used in most experiments and was provided by Dr. Sandra K. Weller, University of Conn.
Stock HCMV was prepared by infecting HFF cells at a multiplicity of infection (m.o.i.) of <0.01 plaque-forming units (p.f.u.) per cell. Cell growth medium was changed every four days until cytopathology was evident in all cells (approximately 21 days). Supernatant fluids were retained as the virus stock.
Virus titers were determined using monolayer cultures of HFF cells for HCMV and monolayer cultures of BSC-1 cells for HSV-1 as described earlier [Prichard, M. N., et al., J. Virol. […] Briefly, HFF or BSC-1 cells were planted as described above in 96-well cluster dishes and incubated overnight at 37. degree. C. in a humidified 3% C02 -97% air atmosphere. The next day cultures were inoculated with HCMV or HSV-1 and serially diluted 1:3 across the remaining eleven columns of the 96-well plate. Cultures were incubated at 37. degree. C. for 2 hr to permit virus adsorption and then virus inoculum was replaced with 0.2 ml of fresh medium. Cultures were incubated for seven days for HCMV, two or three days for HSV-1, the medium was removed, and the cell sheets were stained with 0.1% crystal violet in 20% methanol.
HFF cells in 24-well cluster dishes were infected with approximately 100 p.f.u. of HCMV per cm^2 cell sheet using the procedures detailed above. Following virus adsorption, compounds dissolved in growth medium were added to duplicate wells in four to eight selected concentrations. After incubation at 37° C. for 7 to 10 days, cell sheets were fixed, stained with crystal violet and microscopic plaques enumerated as described above.
After virus adsorption, inoculum was replaced with 0.2 mL of fresh medium containing test compounds. The first row of 12 wells was left undisturbed and served as virus controls. Each well in the second row received an additional 0.1 mL of medium with test compound at three times the desired final concentration. The contents of the 12 wells were mixed by repeated pipetting and then serially diluted 1:3 along the remaining wells. In this manner, six compounds could be tested in duplicate on a single plate with concentrations from […]. Plates were incubated at 37° C. for seven days, subjected to one cycle of freezing and thawing; aliquots from each of the eight wells of a given column were transferred to the first column of a fresh 96-well monolayer culture of HFF cells. Contents were mixed and serially diluted 1:3 across the remaining eleven columns of the secondary plate. Each column of the original primary plate was diluted across a separate plate in this manner. Cultures were incubated, plaques were enumerated, and titers calculated as described above.
(§2) Dose-response relationships were constructed by linearly regressing the percent inhibition of parameters derived in the preceding sections against logarithm 10 drug concentrations. […] Samples containing positive controls (acyclovir for HSV-1 and ganciclovir for HCMV) were used in all assays.

The subject of assay [2] is herpes simplex virus type 1 (HSV-1). As to the kind of experiment: HSV-1 ELISA in BSC-1 cells. Type of assay: cell-based, KOS strain. To be noted: read-out: HSV-1. The procedure: as §1
High titer HSV-1 stocks were prepared by infecting BSC cells at an m.o.i. of <0.1 as detailed previously [Turk, S. R., et al., Antimicrob.
Ninety-six-well cluster dishes were planted with 10,000 BSC-1 cells per well in 200 μL per well of MEM(E) plus 10% calf serum. After overnight incubation at 37° C., selected drug concentrations in quadruplicate and HSV-1 at a concentration of 100 p.f.u./well were added. Following a 3-day incubation at 37° C., medium was removed, plates were blocked, rinsed, and horse radish peroxidase conjugated rabbit anti-HSV-1 antibody was added. Following removal of the antibody containing solution, plates were rinsed, and then developed by adding 150 μL per well of a solution of tetramethylbenzidine as substrate. The reaction was stopped with H2SO4 and absorbance was read at 450 and 570 nm. Drug effects were calculated as a percentage of the reduction in absorbance in the presence of each drug concentration compared to absorbance obtained with virus in the absence of drug.
as §2
On the technique in general: ELISA stands for enzyme-linked immunosorbent assay.

The subject of assay [3] is human foreskin fibroblasts (HFF cells). As to the kind of experiment: Cytotoxicity in stationary HFF cells (microscopic inspection of plaque assay cells). Type of assay: cell-based. The conditions noted are these: read-out: HFF. The procedure: (§3) Two different assays were used to explore cytotoxicity of selected compounds: (i) Cytotoxicity produced in stationary HFF cells was determined by microscopic inspection of cells used in plaque assays which were not affected by the virus [Turk, S. R., et al, Antimicrob.
as §2

Assay [4] has as its system KB cells. The assay can be described thus: Cytotoxicity: KB cell growth (crystal violet staining). In kind it is cell-based. To be noted: Homo sapiens, read-out: KBgrv. The procedure:
as §3
Briefly, 96-well cluster dishes were planted with KB cells at 3000-5000 cells per well. After overnight incubation at 37° C., test compound was added in quadruplicate at six to eight concentrations. Plates were incubated at 37° C for 48 hours in a CO2 incubator, rinsed, fixed with 95% ethanol, and stained with 0.1% crystal violet. Acidified ethanol was added and plates read at 570 nm in a spectrophotometer designed to read 96-well ELISA assay plates.
as §2

The mark [5] stands for this setting: Human alphaherpesvirus 1, BSC-1, 72 h.
Where [6] appears, read: Human alphaherpesvirus 1, 72 h, Table 1, fifty-percent inhibitory concentration, ELISA, BSC-1 cells, 3-day incubation.
Where [7] appears, read: Table 1, cytotoxicity, stationary HFF cells, visual.
[8] abbreviates: Table 1, cytotoxicity, KB cell growth, 48 hours.

Read-outs that look alike come from different tables or passages of the source.

Turning to `Cc1ccccc1Cn1cc(C(N)=O)c2c(N)ncnc21` [Compound 636, 4-amino-7-(2-methylbenzyl)-pyrrolo[2,3-d]pyrimidine-5-carboxamide], the IC50 in assay [1] was 14.5 µM; in assay [2] (setting [5]) it was more than 100 µM; in assay [3] (HFF) it was 100 µM; in assay [4] (KB, 48 h), not below 222 µM.
As to `Cc1ccc(Cn2cc(C(N)=O)c3c(N)ncnc32)cc1` [Compound 658, 4-amino-7-(4-methylbenzyl)-pyrrolo [2,3-d]pyrimidine-5-carboxamide], the IC50 was 181 µM in assay [1]; more than 100 µM in assay [2] (setting [5]); 141 µM in assay [3] (HFF); not below 222 µM in assay [4] (KB, 48 h).
`NC(=O)c1cn(Cc2ccccc2)c2ncnc(N)c12` [Compound 659, 4-amino-7-benzyl-pyrrolo[2,3-d]pyrimidine-5-carboxamide]: the IC50 in assay [1] came out at 171 µM; in assay [2] (setting [5]), 32.6 µM; in assay [3] (HFF), 118 µM; in assay [4] (KB, 48 h), 75 µM.
In the case of `Cc1cccc(Cn2cc(C(N)=O)c3c(N)ncnc32)c1` [Compound 826, 4-amino-7-(3-methylbenzyl)-pyrrolo[2,3-d]pyrimidine-5-carboxamide], the IC50 was not below 222 µM in assay [1]; more than 100 µM in assay [2] (setting [5]); not below 222 µM in assay [3] (HFF); not below 222 µM in assay [4] (KB, 48 h).
As for `COc1ccc(Cn2cc(C(N)=O)c3c(N)ncnc32)cc1` [Compound 839, 4-amino-7-(4-methoxybenzyl)-pyrrolo[2,3-d]pyrimidine-5-carboxamide], the IC50 is 13 µM in assay [1]; 35 µM in assay [2] (setting [5]); 127 µM in assay [3] (HFF); 47 µM in assay [4] (KB, 48 h). Also, the “antiviral activity against HCMV (in words)” value (“antiviral activity” for short) in assay [1] is “good to excellent antiviral activity”.
For the compound `CC(C)(C)c1ccc(Cn2cc(C(N)=O)c3c(N)ncnc32)cc1` [Compound 845, 4-amino-7-(4-t-butylbenzyl)-pyrrolo[2,3-d]pyrimidine-5-carboxamide], the IC50 in assay [1] worked out at 28 µM; in assay [2] (setting [5]) it was 50 µM; in assay [3] (HFF), 100 µM; in assay [4] (KB, 48 h) it was 1 µM.
Take `N#Cc1c(N)n(CC=Cc2ccccc2)c2ncnc(N)c12` [Compound 1329, 4,6-diamino-7-(3-phenyl)prop-2-enyl-pyrrolo[2,3-d]pyrimidine-5-carbonitrile]: the IC50 in assay [1] amounted to 19 µM; in assay [2] (setting [6]) it was 40 µM; in assay [3] (setting [7]), 46 µM; in assay [4] (setting [8]) it was 33 µM.
As for `N#Cc1c(Br)n(Cc2ccc([N+](=O)[O-])cc2)c2ncnc(N)c12` [Compound 1331, 4-amino-6-bromo-7-(4-nitrobenzyl)-pyrrolo[2,3-d]pyrimidine-5-carbonitrile], the IC50 was more than 10 µM in assay [1], more than 100 µM in assay [2] (setting [6]), more than 10 µM in assay [3] (setting [7]) and more than 100 µM in assay [4] (setting [8]).
As to `N#Cc1c(Br)n(CCCc2ccccc2)c2ncnc(N)c12` [Compound 1347, 4-amino-6-bromo-7-(3-phenyl)propyl-pyrrolo[2,3-d]pyrimidine-5-carbonitrile], the IC50 was more than 10 µM in assay [1], not below 222 µM in assay [2] (setting [6]), more than 10 µM in assay [3] (setting [7]) and more than 100 µM in assay [4] (setting [8]).
Take `N#Cc1c(N)n(Cc2ccc([N+](=O)[O-])cc2)c2ncnc(N)c12` [Compound 1348, 4,6-diamino-7-(4-nitrobenzyl)-pyrrolo[2,3-d]pyrimidine-5-carbonitrile]: the IC50 in assay [1] is 0.6 µM; in assay [2] (setting [6]) it was 156 µM; in assay [3] (setting [7]), more than 10 µM; in assay [4] (setting [8]), more than 100 µM. Also, in assay [1], the “antiviral activity” value is on record as “good to excellent antiviral activity”.
Taken in the same sequence, the figures for `N#Cc1c(N)n(CCCc2ccccc2)c2ncnc(N)c12` [Compound 1350, 4,6-diamino-7-(3-phenyl)propyl-pyrrolo[2,3-d]pyrimidine-5-carbonitrile] were 5 µM, 121 µM, more than 100 µM, 50 µM and “excellent activity”.
On to `N#Cc1c(Br)n(CCc2ccccc2)c2ncnc(N)c12` [Compound 1351, 4-amino-6-bromo-7-(2-phenyl)ethyl-pyrrolo[2,3-d]pyrimidine-5-carbonitrile], for which the IC50 is 1 µM in assay [1], not below 222 µM in assay [2] (setting [6]), more than 100 µM in assay [3] (setting [7]) and more than 100 µM in assay [4] (setting [8]). Moreover, the “antiviral activity” value in assay [1] is “excellent activity”.
Regarding `N#Cc1c(N)n(Cc2ccc(N)cc2)c2ncnc(N)c12` [Compound 1352, 4,6-diamino-7-(4-aminobenzyl)-pyrrolo[2,3-d]pyrimidine-5-carbonitrile], the IC50 in assay [1] was more than 100 µM; in assay [2] (setting [6]), 100 µM; in assay [3] (setting [7]) it was more than 100 µM; in assay [4] (setting [8]) it was 146 µM. In assay [1], the “antiviral activity” value is given as “good to excellent antiviral activity”.
On to `N#Cc1c(Br)n(Cc2ccc(F)cc2)c2ncnc(N)c12` [Compound 1353, 4-amino-6-bromo-7-(4-flurobenzyl)-pyrrolo[2,3-d]pyrimidine-5-carbonitrile], for which the IC50 was 1.4 µM in assay [1], 60 µM in assay [2] (setting [6]), 116 µM in assay [3] (setting [7]) and more than 100 µM in assay [4] (setting [8]).
In the case of `N#Cc1c(N)n(Cc2ccc(Cl)cc2)c2ncnc(N)c12` [Compound 1356, 4,6-diamino-7-(4-chlorobenzyl)-pyrrolo[2,3-d]pyrimidine-5-carbonitrile], the IC50 in assay [1] was determined as 0.2 µM; in assay [2] (setting [6]), 17 µM; in assay [3] (setting [7]), 46 µM; in assay [4] (setting [8]), 76 µM. Moreover, in assay [1], the “antiviral activity” value is “good to excellent antiviral activity”.
Taken in the same sequence, the figures for `N#Cc1cn(Cc2ccc([N+](=O)[O-])cc2)c2ncnc(N)c12` [Compound 1360, 4-amino-7-(4-nitrobenzyl)-pyrrolo[2,3-d]pyrimidine-5-carbonitrile] were 1.6 µM, more than 100 µM, more than 10 µM, more than 100 µM and “good to excellent antiviral activity”.
`CNc1ncnc2c1c(C#N)c(Br)n2CCc1ccccc1` [Compound 1463, 4-methylamino-6-bromo-7-(2-phenyl)ethyl-pyrrolo[2,3-d]pyrimidine-5-carbonitrile]: the IC50 in assay [1] and in assay [3] (setting [7]) was more than 10 µM throughout.

The values above are taken from US6342501B1, “Pyrrolo[2,3-d] pyrimidines as antiviral agents” (The Regents of the University of Michigan, priority 1994, dated 2002).
